{"source": "patent US6310093A", "about": "(priority 1998, dated 2001)", "key": {"[1]": {"tested_on": "neuronal cells in culture"}, "glutaminase": {"tested_on": "glutaminase", "details": "cited from earlier work"}, "[2]": {"details": "Kaneko et al. 1992; cited from earlier work"}, "[3]": {"tested_on": "hippocampal slices (field potential)"}, "[4]": {"target": "T1, glutaminase in damaged neurons (Mus musculus, UniProt D3Z7P3)", "T1 sequence (D3Z7P3 73-674 limits assumed)": "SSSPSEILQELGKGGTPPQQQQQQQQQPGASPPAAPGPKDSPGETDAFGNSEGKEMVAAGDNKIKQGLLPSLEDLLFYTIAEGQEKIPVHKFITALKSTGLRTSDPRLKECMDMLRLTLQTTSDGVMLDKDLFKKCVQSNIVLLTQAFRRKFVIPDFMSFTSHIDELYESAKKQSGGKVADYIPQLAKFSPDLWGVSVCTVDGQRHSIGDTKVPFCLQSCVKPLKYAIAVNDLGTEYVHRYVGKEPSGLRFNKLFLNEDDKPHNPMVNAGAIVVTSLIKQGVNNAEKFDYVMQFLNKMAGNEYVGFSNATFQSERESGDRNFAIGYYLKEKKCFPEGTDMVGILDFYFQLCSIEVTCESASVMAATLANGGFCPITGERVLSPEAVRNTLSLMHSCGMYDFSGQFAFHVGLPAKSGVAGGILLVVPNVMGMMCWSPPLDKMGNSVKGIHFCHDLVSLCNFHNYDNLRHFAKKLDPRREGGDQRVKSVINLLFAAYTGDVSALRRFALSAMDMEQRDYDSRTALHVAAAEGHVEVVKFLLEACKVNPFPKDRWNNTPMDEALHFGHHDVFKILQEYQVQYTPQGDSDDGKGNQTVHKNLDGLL"}, "[5]": {"target": "T2, glutaminase in live (intact) neurons (Mus musculus, UniProt D3Z7P3)", "T2 sequence (D3Z7P3 55-674)": "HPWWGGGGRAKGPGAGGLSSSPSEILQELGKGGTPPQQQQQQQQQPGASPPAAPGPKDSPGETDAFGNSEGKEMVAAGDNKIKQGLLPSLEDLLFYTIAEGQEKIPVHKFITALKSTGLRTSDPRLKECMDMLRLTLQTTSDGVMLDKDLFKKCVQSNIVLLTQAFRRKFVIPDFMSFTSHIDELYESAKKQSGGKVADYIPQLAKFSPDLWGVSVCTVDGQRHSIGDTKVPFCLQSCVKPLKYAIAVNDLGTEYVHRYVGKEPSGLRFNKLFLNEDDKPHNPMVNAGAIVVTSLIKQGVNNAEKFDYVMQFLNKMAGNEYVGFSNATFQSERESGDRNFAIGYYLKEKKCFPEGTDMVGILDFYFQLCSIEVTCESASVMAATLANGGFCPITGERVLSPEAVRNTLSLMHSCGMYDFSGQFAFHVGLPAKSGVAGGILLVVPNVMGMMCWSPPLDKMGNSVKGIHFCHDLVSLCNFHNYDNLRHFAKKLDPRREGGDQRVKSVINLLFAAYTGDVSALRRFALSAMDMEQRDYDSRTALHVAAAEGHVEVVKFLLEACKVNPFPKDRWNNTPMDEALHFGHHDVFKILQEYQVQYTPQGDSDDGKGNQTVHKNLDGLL", "type": "cell-based, mouse (Swiss Webster)"}, "[6]": {"details": "Huber; cited from earlier work"}, "[7]": {"tested_on": "mixed glial-neuronal cultures", "assay": "Glutamate uptake (clearance) by mixed glial-neuronal cultures", "type": "cell-based, mouse (Swiss Webster)", "description": "(§1) This allows expression of medium glutamate concentrations as:\n(§2) where [Glu], in units of μM, is the concentration of glutamate in the 0.4 ml of medium in a culture well, S (in μM/min) is the rate of addition of glutamate to the culture medium from cellular sources, and k (in min^-1) is the empirically determined rate constant for clearance (Roberts). […] Although the value of k is proportional to cell (carrier) density, little variation is expected in cultures containing glia, as glial cultures are confluent.\nas §2, with “(Roberts, D. V. (1977) Enzyme Kinetics, Cambridge University Press, Cambridge, pp23-30.).” for “(Roberts).”, “glia” for “glia,”"}, "neuronal cultures": {"tested_on": "neuronal cultures", "assay": "Glutamate uptake (clearance) by neuronal cultures", "type": "cell-based, mouse (Swiss Webster)", "details": "intact neurons", "description": "as §1, §2\nas §2, with “(Roberts, D. V. (1977) Enzyme Kinetics, Cambridge University Press, Cambridge, pp23-30.).” for “(Roberts).”, “glia” for “glia,”"}, "isolated neurons": {"tested_on": "isolated neurons", "details": "Rosenberg; Dugan et al., 1995; read-out: IC50 for toxicity of glutamate on isolated neurons; cited from earlier work"}, "[8]": {"tested_on": "glial cultures (astrocytes)", "type": "cell-based, mouse (Swiss Webster)"}, "[9]": {"target": "T3, glutaminase (brain membranes) (Rattus norvegicus, UniProt P13264)", "T3 construct": "Membranes are prepared by homogenization of brain tissue in 330 mM sucrose; from tissue; host or cells: rat brain, crude membranes (17000 G pellet)", "T3 sequence (P13264 73-674 limits assumed)": "T1 sequence (D3Z7P3 73-674 limits assumed) with I64V, G590E", "assay": "biochemical"}, "[10]": {"tested_on": "glial cultures (astrocytes)", "details": "Hertz; Drejer; read-out: Km for cellular uptake of glutamate; cited from earlier work"}, "[11]": {"tested_on": "mixed neuronal-astrocyte cultures"}, "[12]": {"tested_on": "mixed neuronal-astrocyte cultures", "assay": "cells", "details": "Mus musculus, 24 h, read-out: % cell death (LDH)"}, "[13]": {"tested_on": "neuronal cells in culture", "assay": "cells", "details": "Mus musculus, read-out: LDH release by NMDA exposure relative to freeze-thaw"}, "[14]": {"tested_on": "pure neuronal cultures (cortical neurons) exposed to glutamine"}, "[15]": {"tested_on": "ischemic penumbra (dialysate glutamate)", "assay": "In vivo microdialysis of ischemic penumbra after MCAO", "set-up": "species or system rat", "details": "subsequent perfusion of phosphate; ±400%", "description": "In further microdialysis experiments, exogenous glutamine was added to the ischemic penumbra via the probe, and dialysis glutamate was measured, as described in Example 7. When 10 mM glutamine plus 20 mM sodium phosphate were perfused into the penumbra for one hour, dialysate glutamate was elevated 315% as compared to control (±115%). […] The effects on glutamate were much more pronounced than on other amino acids measured; therefore, these studies provided further support for the involvement of extracellular glutaminase activity in producing the elevated levels of glutamate in cortical tissue undergoing ischemic damage.\nThe middle cerebral arteries of rats were occluded as in EXAMPLE 7, and the rats were returned to their cages overnight. The next morning, dialysis probes ([…], 2 mm length, 20,000 dalton cutoff) were inserted into ischemic penumbra (cortex) and perfused with artificial CSF at 3 μl/min for 1 h prior to collection of 10 minute fractions of dialysate. The effectiveness of the occlusion and the placement of probes were verified by TTC staining of 1 mm sections at the conclusion of the experiment. Amino acids in the dialysate were measured by reverse phase HPLC with fluorescence detection, after derivatization of the dialysates with o-phthaldialdehyde and N-acetyl-L-cysteine […]"}, "[16]": {"details": "7 h hypoxia, 2 mM Gln + 30 uM pCMPS"}}, "note": "Substitutions are numbered along the chain they refer to. Values joined by “and” are separate entries in the source; they are usually repeats but may differ in a detail not shown here. Equal entries are not always repeated. Where two headings read alike, the source gives them in different places."}
{"smiles": "N[C@@H](CC(=O)CCl)C(=O)O", "note": "[Chloroketone, L-2-amino-4-oxo-5-chloropentanoic acid]", "values": [{"measurement": "LDH release from neuronal cells (in words)", "setting": "[1]", "value": "resulted in release of lactate dehydrogenase from the cells, indicating cellular toxicity and death"}, {"measurement": "glutaminase inhibition (literature, in words)", "setting": "glutaminase", "value": "only weak (mM) inhibitors"}]}
{"smiles": "[N-]=[N+]=CC(=O)CC[C@H](N)C(=O)O", "note": "[DON, 6-diazo-5-oxo-L-norleucine]", "values": [{"measurement": "LDH release from neuronal cells (in words)", "setting": "[1]", "value": "resulted in release of lactate dehydrogenase from the cells, indicating cellular toxicity and death"}, {"measurement": "toxicity and tissue penetration after CNS administration (in words)", "setting": "[2]", "value": "toxicity and poor tissue penetration"}, {"measurement": "effect on hippocampal field potential (in words)", "setting": "[3]", "value": "decreased the magnitude and prolonged the duration of the field potential"}, {"measurement": "inhibition of glutamate production", "setting": "[4]", "value": "90% and 50%"}, {"measurement": "inhibition of glutaminase activity in damaged cells (in words)", "setting": "[4]", "value": "inhibit glutaminase activity in damaged cells"}, {"measurement": "effect on glutaminase activity of intact/live neurons (in words)", "setting": "[5]", "value": "inhibition of glutaminase"}, {"measurement": "glutamate production after neuronal death", "setting": "[5]", "value": "0.23 ± 0.03 μM Glu/min and 0.15 ± 0.02 μM Glu/min"}, {"measurement": "crossing of cell membranes (in words)", "setting": "[6]", "value": "readily cross cell membranes"}]}
{"smiles": "N[C@@H](CCC(=O)O)C(=O)O", "note": "[L-glutamic acid]", "values": [{"measurement": "first order rate constant for glutamate uptake", "setting": "[7]; 15 μM glutamate", "value": 0.072, "unit": "min⁻¹"}, {"measurement": "Glutamate uptake (k)", "setting": "[7]; Table 2, glial-neuronal", "value": 0.072}, {"measurement": "Glutamate uptake (k)", "setting": "neuronal cultures", "value": 0.012, "unit": "min⁻¹"}, {"measurement": "IC50", "setting": "isolated neurons", "value": "5 to 10", "unit": "µM"}, {"measurement": "Glutamate uptake (k)", "setting": "[8]", "value": 0.083}, {"measurement": "first order rate constant for glutamate uptake", "setting": "[8]", "value": 0.083, "unit": "min⁻¹"}, {"measurement": "glutamate uptake rate of glial vs neuronal cultures", "setting": "[8]", "value": "about 7 times"}, {"measurement": "glutaminase inhibition (in words)", "setting": "[9]", "value": "no significant effect on enzyme activity at 3.3 mM"}, {"measurement": "activity at 1000 µM", "setting": "[9]; read-out: Glutaminase Activity", "value": "105 ± 15", "unit": "%"}, {"measurement": "activity at 3300 µM", "setting": "[9]; read-out: Glutaminase Activity", "value": "113 ± 32", "unit": "%"}, {"measurement": "Km", "setting": "[10]", "value": "~45", "unit": "µM"}]}
{"smiles": "CN[C@H](CC(=O)O)C(=O)O", "note": "[NMDA, N-methyl-D-aspartate]", "values": [{"measurement": "Glu", "setting": "[11]", "value": "7.0 ± 0.6"}, {"measurement": "cytotoxicity at 500 µM", "setting": "[12]", "value": 100, "unit": "%"}, {"measurement": "cytotoxicity at 500 µM", "setting": "[13]", "value": "~85", "unit": "%"}]}
{"smiles": "N[C@H](C(=O)O)[C@@H]1CC(Cl)=NO1", "note": "[acivicin]", "values": [{"measurement": "effect on glutamine hydrolysis by damaged neurons (in words)", "setting": "[4]", "value": "no effect on glutamine hydrolysis"}, {"measurement": "glutaminase inhibition (literature, in words)", "setting": "glutaminase", "value": "do not inhibit glutaminase"}, {"measurement": "crossing of cell membranes (in words)", "setting": "[6]", "value": "readily cross cell membranes"}]}
{"smiles": "[N-]=[N+]=CC(=O)OC[C@H](N)C(=O)O", "note": "[azaserine]", "values": [{"measurement": "glutaminase inhibition (literature, in words)", "setting": "glutaminase", "value": "do not inhibit glutaminase"}]}
{"smiles": "NNC(=O)CCC(N)C(=O)O", "note": "(stereo not shown) [glutamate-γ-hydrazide]", "values": [{"measurement": "effect on glutamine hydrolysis by damaged neurons (in words)", "setting": "[4]", "value": "no effect on glutamine hydrolysis"}]}
{"smiles": "O=S(=O)(O)c1cc[c]([Hg][Cl])cc1", "note": "[pCMPS, p-(chloromercuri)phenyl sulfonic acid]", "values": [{"measurement": "LDH release from control cultures (in words)", "setting": "[1]; 30 μM", "value": "did not cause LDH release from control cultures"}, {"measurement": "effect on hippocampal field potential (in words)", "setting": "[3]; 120 μM, 60 min perfusion", "value": "no effect on the field potential"}, {"measurement": "concentration required to inhibit glutaminase", "setting": "[4]", "value": "10 to 30", "unit": "µM"}, {"measurement": "inhibition of glutamine hydrolysis by NMDA-damaged neurons (in words)", "setting": "[4]; 30 μM", "value": "almost completely inhibited"}, {"measurement": "glutamate generation by NMDA-damaged neurons (in words)", "setting": "[4]; 600 μM", "value": "completely abolished glutamate generation"}, {"measurement": "effect on medium glutamate and release of LDH in hypoxic mixed cultures (in words)", "setting": "[11]; 30 μM pCMPS, 2 mM glutamine, hypoxia 7h", "value": "lowered medium glutamate and release of LDH"}, {"measurement": "medium glutamate", "setting": "[11]; [16]", "value": "1.45 ± 1.0", "unit": "μM Glu"}, {"measurement": "neuronal LDH release", "setting": "[11]; [16]", "value": "38.5 ± 8.1", "unit": "%"}, {"measurement": "effect on glutaminase activity of intact/live neurons (in words)", "setting": "[5]", "value": "lack of effect"}, {"measurement": "glial uptake of glutamate (in words)", "setting": "[8]; at much higher concentrations than inhibition of exposed glutaminase", "value": "blocks glial uptake of glutamate"}, {"measurement": "LDH release caused by glutamine exposure (in words)", "setting": "[14]", "value": "prevented the release of LDH"}, {"measurement": "medium glutamate", "setting": "[14]", "value": "10.3 ± 4", "unit": "μM Glu"}, {"measurement": "neuronal morphology (in words)", "setting": "[14]", "value": "neurons retained their normal appearance after 24 h"}, {"measurement": "neuroprotection (in words)", "setting": "[14]", "value": "protected pure neuronal cultures from neuronal damage caused by exposure to glutamine"}, {"measurement": "neuronal LDH release", "setting": "[14]; mouse, pure neuronal cultures, 24 h, 30 µM", "value": "17 ± 10.5"}]}
{"smiles": "O=P(O)(O)O", "note": "[phosphate, sodium phosphate]", "values": [{"measurement": "increase of glutamate generation", "setting": "[4]; mixed neuronal-glial cultures, 20000 µM", "value": 8, "unit": "fold"}, {"measurement": "dialysate glutamate, % of control", "setting": "[15]", "value": "845 % of control"}]}
